In PubChem BioAssay (NCI) one finds TGI and GI50 data, which are given here for 14 compounds.

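All cell lines were grown in 96-well plates and treated with compound for 48 hours. The concentration for 50% growth inhibition is given as GI50. TGI marks complete inhibition of growth.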 Bounds are passed on as bounds.

Test systems include HOP-92 NSCLC; SN12C renal; SNB-75 CNS; SK-MEL-5 melanoma; HCT-116 colon; HOP-62 NSCLC; ACHN renal; HT29 colon; SF-539 CNS.
Holding throughout (test): NCI anticancer screen, dose series, 48 h

In the case of `O=C(NCc1ccncc1)C1COc2cc(-c3cc(=O)c4ccccc4o3)ccc2O1` (stereo unspecified), the TGI in the assay with HOP-92 NSCLC, in the assay with SN12C renal, in the assay with SNB-75 CNS, with SK-MEL-5 melanoma, in the assay on HCT-116 colon and in the assay on HOP-62 NSCLC was more than 100 µM in each case. Also, the TGI in the assay with ACHN renal, with HT29 colon and with SF-539 CNS was more than 100 µM each time.
As to `CC(C)CN(CC(C)C)C(=O)C1CCCC[C@@H]1C(=O)O` (stereo partly specified), the TGI in the assay with HOP-92 NSCLC, in the assay on SN12C renal, in the assay on SNB-75 CNS, with SK-MEL-5 melanoma, in the assay with HCT-116 colon and in the assay with HOP-62 NSCLC was more than 100 µM throughout. Further, the TGI in the assay with ACHN renal, in the assay with HT29 colon and in the assay on SF-539 CNS was more than 100 µM throughout.
Take `O=c1c2cccnc2ncn1CCN1CCCC1`: the TGI in the assay on HOP-92 NSCLC, in the assay on SN12C renal, in the assay on SNB-75 CNS, in the assay on SK-MEL-5 melanoma, in the assay on HCT-116 colon and in the assay on HOP-62 NSCLC was more than 100 µM throughout. Also, the TGI with ACHN renal, in the assay with HT29 colon and in the assay with SF-539 CNS was more than 100 µM in each case.
On to `Cn1cnc([N+](=O)[O-])c1Sc1nnnn1-c1ccccc1`, for which the TGI was 13 µM in the assay on HOP-92 NSCLC; 29.7 µM in the assay with SN12C renal; 31 µM in the assay on SNB-75 CNS; 29.9 µM in the assay on SK-MEL-5 melanoma; 23.4 µM in the assay with HCT-116 colon; more than 100 µM in the assay with HOP-62 NSCLC. The TGI with ACHN renal worked out at 27 µM; with HT29 colon it was 31.9 µM; with SF-539 CNS, 24.9 µM.
On to `CC/C=C/c1cc2cc[nH]c2c2c1C(C)C[C@@H]2C` (stereo partly specified), for which the TGI in the assay with HOP-92 NSCLC is 62.6 µM; in the assay with SN12C renal, 35 µM; in the assay with SNB-75 CNS it was 70.1 µM; with SK-MEL-5 melanoma it was 46.4 µM; with HCT-116 colon, 29.7 µM; in the assay with ACHN renal, more than 100 µM. The TGI was 82.2 µM with HT29 colon and 50.1 µM in the assay with SF-539 CNS.
On to `C=CCn1cc(C(=O)NC(=O)NCCCCCOC(=O)CCCCCCCCCCC(=O)OCCCCCNC(=O)NC(=O)c2cn(CC=C)c(=O)n(C)c2=O)c(=O)n(C)c1=O`, for which the TGI in the assay with HOP-92 NSCLC, in the assay with SN12C renal, with SNB-75 CNS, in the assay with SK-MEL-5 melanoma, in the assay with HCT-116 colon and in the assay with HOP-62 NSCLC was more than 100 µM in each case. For the same compound, the TGI in the assay on ACHN renal, in the assay on HT29 colon and in the assay with SF-539 CNS was more than 100 µM each time.
For the compound `CC1(O)CCC2(C#N)CCC1C2O` (stereo unspecified), the TGI in the assay on SN12C renal, with SNB-75 CNS, with SK-MEL-5 melanoma, in the assay with HCT-116 colon, with HOP-62 NSCLC and with ACHN renal was more than 100 µM throughout. In addition, the TGI in the assay with HT29 colon and in the assay on SF-539 CNS was more than 100 µM throughout.
For `S=c1nc(N2CCCCC2)ss1`, the TGI in the assay with HOP-92 NSCLC amounted to 36.7 µM; with SN12C renal it was 40.9 µM; in the assay on SNB-75 CNS, 77 µM; with SK-MEL-5 melanoma, 30.5 µM; in the assay with HCT-116 colon, 42.4 µM; with HOP-62 NSCLC it was 64.6 µM. In addition, the TGI in the assay with ACHN renal amounted to 67 µM; in the assay on HT29 colon, 79.6 µM; in the assay on SF-539 CNS it was 36.6 µM.
For `C1COCCOCCOCCOCCO1.CC(=O)[CH-]C(C)=O.CC(=O)[CH-]C(C)=O.CC(=O)[CH-]C(C)=O.[V]`, the GI50 in the assay with HOP-92 NSCLC was 11.2 µM; in the assay with SN12C renal it was 21.3 µM; in the assay on SNB-75 CNS it was 10.6 µM; with SK-MEL-5 melanoma, 2.47 µM; in the assay on HCT-116 colon, 13.4 µM; in the assay on ACHN renal, 12 µM. In addition, the GI50 with HT29 colon was 19.1 µM; in the assay with SF-539 CNS it was 3.75 µM. The TGI turned out to be 44.7 µM with HOP-92 NSCLC; 62.3 µM with SN12C renal; 23 µM in the assay with SNB-75 CNS; 12.8 µM with SK-MEL-5 melanoma; 27.3 µM in the assay with HCT-116 colon; 44.1 µM in the assay on ACHN renal. In addition, the TGI in the assay with HT29 colon was 37.4 µM; in the assay with SF-539 CNS, 13.8 µM.
For the compound `Cc1cc2cn3c4cccnc4[nH]c(=O)c3c2cc1C`, the GI50 in the assay on HOP-92 NSCLC was 1.24 µM; in the assay with SNB-75 CNS, 1.43 µM; with SK-MEL-5 melanoma, 1.13 µM; with HCT-116 colon it was 1.45 µM; in the assay on HOP-62 NSCLC it was 1.5 µM; in the assay with ACHN renal, 1.73 µM. Besides, the GI50 in the assay on SF-539 CNS was 1.73 µM. The TGI came to 2.65 µM in the assay on HOP-92 NSCLC; 3.08 µM in the assay with SNB-75 CNS; 2.34 µM with SK-MEL-5 melanoma; 2.76 µM in the assay with HCT-116 colon; 2.85 µM in the assay on HOP-62 NSCLC; 3.1 µM in the assay with ACHN renal. This compound came in with a TGI in the assay on SF-539 CNS of 3.12 µM.
In the case of `CSc1ncnc2c1CCN2`, the GI50 is 75 µM in the assay on HOP-92 NSCLC, more than 100 µM in the assay with SK-MEL-5 melanoma, more than 100 µM in the assay with HCT-116 colon and more than 100 µM in the assay on HT29 colon. Further, the TGI with HOP-92 NSCLC, with SN12C renal, in the assay on SK-MEL-5 melanoma, with HCT-116 colon, in the assay with HOP-62 NSCLC and in the assay with HT29 colon was more than 100 µM throughout.
Turning to `COc1cc(/C=C(\OC(C)=O)c2ccc3c(c2)OCO3)cc(OC)c1OC`, the TGI with HOP-92 NSCLC was 45.4 µM; in the assay on SN12C renal, 88.1 µM; in the assay on SNB-75 CNS it was 46.7 µM; in the assay on SK-MEL-5 melanoma, 24.5 µM; in the assay on HCT-116 colon, 38.9 µM; in the assay with HOP-62 NSCLC, 47.7 µM. Besides, the figures for the TGI with ACHN renal, with HT29 colon and in the assay on SF-539 CNS were 69.3 µM, 61.9 µM and 38.8 µM, respectively.
Take `COC(=O)C1C(OCc2ccccc2)C2CCC1(OC)C=C2C` (stereo unspecified): the TGI with HOP-92 NSCLC, in the assay on SN12C renal, with SNB-75 CNS, in the assay on SK-MEL-5 melanoma, in the assay on HCT-116 colon and in the assay with HOP-62 NSCLC was more than 100 µM each time. Moreover, the TGI with ACHN renal, in the assay with HT29 colon and in the assay on SF-539 CNS was more than 100 µM in each case.
Regarding `N#C/C(=C\c1ccc(C(O)P(=O)(O)O)cc1)C(N)=O` (stereo unspecified), the TGI in the assay on HOP-92 NSCLC, in the assay with SN12C renal, in the assay with SK-MEL-5 melanoma, in the assay on HCT-116 colon, in the assay with HOP-62 NSCLC and in the assay on ACHN renal was more than 100 µM each time. Besides, the TGI with HT29 colon and in the assay on SF-539 CNS was more than 100 µM each time.
